Laboratory results reported in patent publication US20040102633A1, “Novel compounds” (priority 2000, published 2004).
Structures can show the parent of a compound that is named as a salt.

| SMILES | melting point |
| --- | --- |
| CC[C@H](NC(=O)c1c(CN2CCC(N3CCCCC3)CC2)c(-c2ccccc2)nc2cc(OCC(=O)O)ccc12)c1ccccc1 (as salt: hydrochloride) [Example 17, [3-[1,4′]Bipiperidinyl-1′-ylmethyl-2-phenyl-4((S)-1-phenyl-propylcarbamoyl)-quinolin-7-yloxy]-acetic Acid Dihydrochloride] | 196 °C (dec.) |
| C[C@H](NC(=O)c1c(CN2CCC(N)CC2)c(-c2ccccc2)nc2ccccc12)C1CCCCC1 [Example 6, 3-(4-Amino-piperidin-1-ylmethyl)-2-phenyl-quinoline-4-carboxylic Acid ((S)-1-cyclohexyl-ethyl)-amide] | 140 to 145 °C |
| C[C@H](NC(=O)c1c(CN2CCC(N)CC2)c(-c2ccccc2)nc2ccccc12)c1ccccc1 [Example 7, 3-(4-Amino-piperidin-1-ylmethyl)-2-phenyl-quinoline-4-carboxylic Acid ((S)-1-phenyl-ethyl)-amide] | 118 to 119 °C |
| C[C@H](NC(=O)c1c(CN2CCC(N3CCCCC3=O)CC2)c(-c2ccccc2)nc2ccccc12)c1ccccc1 [Example 11, 3-(2-Oxo-[1,4′]bipiperidinyl-1′-ylmethyl)-2-phenyl-quinoline-4-carboxylic Acid ((S)-1-phenyl-ethyl)-amide] | 124 to 125 °C |
| C[C@H](NC(=O)c1c(CN2CCC(N3CCCC3=O)CC2)c(-c2ccccc2)nc2ccccc12)c1ccccc1 [Example 12, 3-[4-(2-Oxo-pyrrolidin-1-yl)-piperidin-1-ylmethyl]-2-phenyl-quinoline-4-carboxylic Acid ((S)-1-phenyl-ethyl)-amide] | 120 to 125 °C |
| CCOC(=O)C1CCCN(C2CCN(Cc3c(-c4ccccc4)nc4ccccc4c3C(=O)N[C@@H](C)C3CCCCC3)CC2)C1 (stereo partly drawn) [Example 13, 1′-[4-((S)-1-Cyclohexyl-ethylcarbamoyl)-2-phenyl-quinolin-3-ylmethyl]-[1,4′]bipiperidinyl-3-carboxylic Acid Ethyl Ester] | 104 to 105 °C |
| C[C@H](NC(=O)c1c(CN2CCC(N3CCCC(C(=O)O)C3)CC2)c(-c2ccccc2)nc2ccccc12)C1CCCCC1 (stereo partly drawn) [Example 14, 1′-[4-((S)-1-Cyclohexyl-ethylcarbamoyl)-2-phenyl-quinolin-3-ylmethyl]-[1,4′]bipiperidinyl-3-carboxylic Acid] | 160 to 165 °C |
| C[C@H](NC(=O)c1c(CN2CCC(N3CCCCC3)CC2)c(-c2ccccc2)nc2cc(O)ccc12)C1CCCCC1 [Example 15, 3-[1,4′]Bipiperidinyl-1′-ylmethyl-7-hydroxy-2-phenyl-quinoline-4-carboxylic Acid ((S)-1-cyclohexyl-ethyl)-amide] | 177.9 to 178 °C |
| CCOC(=O)COc1ccc2c(C(=O)N[C@@H](CC)c3ccccc3)c(CN3CCC(N4CCCCC4)CC3)c(-c3ccccc3)nc2c1 [Example 16, [3-[1,4′]Bipiperidinyl-1′-ylmethyl-2-phenyl-4-((S)-1-phenyl-propylcarbamoyl)-quinolin-7-yloxy]-acetic Acid Ethyl Ester] | 101 to 104 °C |
| C[C@H](NC(=O)c1c(CN2CCC(N3CCCCC3)CC2)c(-c2ccccc2)nc2cc(O)ccc12)c1ccccc1 [Example 18, 3-[1,4′]Bipiperidinyl-1′-ylmethyl-7-hydroxy-2-phenyl-quin line-4-carboxylic Acid ((S)-1-phenyl-ethyl)-amide] | 99.6 to 99.7 °C |
| CC[C@H](NC(=O)c1c(CN2CCC(N3CCCCC3)CC2)c(-c2ccccc2)nc2cc(OCCO)ccc12)c1ccccc1 [Example 19, 3-[1,4′]Bipiperidinyl-1′-ylmethyl-7-(2-hydroxy-ethoxy)-2-phenyl-quinoline-4-carboxylic acid ((S)-1-phenyl-propyl)-amide] | 118 to 122 °C |

Further lines, results first:

| melting point | SMILES |
| --- | --- |
| 218 to 220 °C | CC[C@H](NC(=O)c1c(CN2CCC(N3CCCCC3)CC2)c(-c2ccccc2)nc2cc(OCC(N)=O)ccc12)c1ccccc1 (as salt: hydrochloride) [Example 20, 3-[1,4′]Bipiperidinyl-1′-ylmethyl-7-carbamoylmethoxy-2-phenyl-quinoline-4-carboxylic Acid ((S)-1-phenyl-propyl)-amide Dihydrochloride] |
| 200 to 204 °C (dec.) | CC(C)[C@H](NC(=O)c1c(CN2CCC(N3CCCCC3)CC2)c(-c2ccccc2)nc2cc(O)ccc12)c1ccccc1 [Example 21, 3-[1,4′]Bipiperidinyl-1′-ylmethyl-7-hydroxy-2-phenyl-quinoline-4-carboxylic Acid ((S)-2-methyl-1-phenyl-propyl)-amide] |
| 113 to 116 °C | COc1ccc2c(C(=O)N[C@H](c3ccccc3)C(C)C)c(CN3CCC(N4CCCCC4)CC3)c(-c3ccccc3)nc2c1 [Example 22, 3-[1,4′]Bipiperidinyl-1′-ylmethyl-7-methoxy-2-phenyl-quinoline-4-carboxylic Acid ((S)-2-methyl-1-phenyl-propyl)-amide] |
| 152 to 154 °C | C[C@H](NC(=O)c1c(CN2CCC(N3CCCCC3)CC2)c(-c2ccccc2)nc2cc(Cl)ccc12)C1CCCCC1 [Example 24, 3-[1,4′]Bipiperidinyl-1′-ylmethyl-7-chloro-2-phenyl-quinoline-4-carboxylic acid ((S)-1-cyclohexyl-ethyl)-amide] |
| 161 to 163 °C | C[C@H](NC(=O)c1c(CN2CCC(N3CCCCC3)CC2)c(-c2ccccc2)nc2cc(F)ccc12)C1CCCCC1 [Example 25, 3-[1,4′]Bipiperidinyl-1′-ylmethyl-7-fluoro-2-phenyl-quinoline-4-carboxylic Acid ((S)-1-cyclohexyl-ethyl)-amide] |
| 113 °C | C[C@H](NC(=O)c1c(CN2CCC(N3CCCCC3)CC2)c(-c2ccccc2)nc2c(F)cccc12)C1CCCCC1 [Example 26, 3-[1,4′]Bipiperidinyl-1′-ylmethyl-8-fluoro-2-phenyl-quinoline-4-carboxylic Acid ((S)-1-cyclohexyl-ethyl)-amide] |
| 165 to 166 °C | C[C@H](NC(=O)c1c(CN2CCC(N3CCCCC3)CC2)c(-c2cccs2)nc2ccccc12)C1CCCCC1 [Example 27, 3-[1,4′]Bipiperidinyl-1-ylmethyl-2-thiophen-2-yl-quinoline-4-carboxylic Acid ((S)-1-cyclohexyl-ethyl)-amide] |
| 174 to 175 °C | C[C@H](NC(=O)c1c(CN2CCC(N3CCCCC3)CC2)c(-c2ccccc2)nc2ccc(F)cc12)C1CCCCC1 [Example 28, 3-[1,4′]Bipiperidinyl-1′-ylmethyl-6-fluoro-2-phenyl-quinoline-4-carboxylic Acid ((S)-1-cyclohexyl-ethyl)-amide] |
| 151 to 153 °C | C[C@H](NC(=O)c1c(CN2CCC(N3CCCCC3)CC2)c(-c2ccc(F)cc2)nc2ccccc12)C1CCCCC1 [Example 29, 3-[1,4′]Bipiperidinyl-1′-ylmethyl-2-(4-fluoro-phenyl)-quinoline-4-carboxylic Acid ((S)-1-cyclohexyl-ethyl)-amide] |
| 138 to 140 °C | C[C@H](NC(=O)c1c(CN2CCC(N3CCCCC3)CC2)c(-c2ccc(C(F)(F)F)cc2)nc2ccccc12)C1CCCCC1 [Example 30, 3-[1,4′]Bipiperidinyl-1′-ylmethyl-2-(4-trifluoromethyl-phenyl) -quinoline-4-carboxylic Acid ((S)-1-cyclohexyl-ethyl)-amide] |
